Legend:
Type in all cases: cell-based, human
[1] = test system: HOS cells; assay: Invasiveness, BME-coated transwell assay; settings: 24 h
Description: The invasiveness of the HOS osteosarcoma cells was assessed after treatment with compound 4 at concentrations of 12.5, 25 and 50 µM. The assay was carried out using the Trevigen’sCultureCoat®24-well Cell Invasion Assay (R&D Systems, Minneapolis, […], USA) equipped with a Basement Membrane Extract (BME)-coated membrane (8 µm) of transwell inserts. The assay was performed according to the manufacturer’s instruction and as in the transwell migration assay described above.

[2] = test system: Saos-2 cells; assay: BrdU proliferation assay, 96 h; settings: Saos-2, 60 µM, cells pre-treated with 100 µM thiorphan for 1 h, 96 h
Description: (§1) In the study on the implication of NEP in the anti-proliferative activity of compound 4, cell proliferation was determined with the BrdU assay. Cell cultures were prepared as described above. Depending on the requirements, the HOS and Saos-2 cells were treated with non-cytotoxic concentrations of the NEP inhibitor—thiorphan (1, 5, 20, 100, 200, 500 µM) or pre-treated with thiorphan (100 µM) for 1 h. In this scheme, compound 4 (HOS—25 µM; Saos-2—60 µM) was added alone or in combination with the NEP inhibitor into the cell cultures. Finally, cell proliferation was evaluated with the BrdU Cell Proliferation Assay according to the manufacturer’s instructions (Millipore, Darmstadt, Germany) after a 96-h incubation.
(§2) The results of these assays were calculated as a percent of the untreated cells (100%; control). Then, the IC50 (concentration resulting in 50% inhibition of proliferation) and CC50 (concentration resulting in a 50% decrease in viability) values were calculated from a non-linear regression (log(inhibitor) vs. normalized response-variable slope) using GraphPad Prism 5.0 (GraphPAD Software Inc., San Diego, CA, USA). The IC50 and CC50 results were presented as themean ± SD of at least three experiments. In the case of the BrdU assay, the results were presented as a percent of untreated cells (100%; control).

[3] = test system: HOS cells; assay: BrdU proliferation assay, 96 h; settings: 25 µM, cells pre-treated with 100 µM thiorphan for 1 h, 96 h
Description: as §1, §2

[BH3-][P+](OC(C)C)(OC(C)C)C(Nc1ccc(Br)cc1)c1ccc([N+](=O)[O-])cc1 (centres unmarked) [Compound 4, [1-(N-p-bromophenylamino)]-1-(p-nitrophenyl)methylphosphonousacid-borane diisopropyl ester]
decrease in cell invasiveness ([1]; 12.5 µM): approx. 53% | decrease in cell invasiveness ([1]; 25 µM): ~70% | decrease in cell invasiveness ([1]; 50 µM): ~82% | effect of thiorphan pretreatment on anti-proliferative properties [2]: partially abolished | effect of thiorphan pretreatment on anti-proliferative properties [3]: partially abolished

— PMC9223658, “New Borane-Protected Derivatives of α-Aminophosphonous Acid as Anti-Osteosarcoma Agents: ADME Analysis and Molecular Modeling, In Vitro Studies on Anti-Cancer Activities, and NEP Inhibition as a Possible Mechanism of Anti-Proliferative Activity” (International Journal of Molecular Sciences, 2022)
